Active and inactive are the calls of the source. No cut-off for these calls is given here.
Assays:
SARS-CoV-2 [1] = experiment: Antiviral activity against SARS Cov-2 USA_WA1/2020 infected in Vero E6 cells expressing ACE2 reporter assessed as reduction in plaque formation at 0.21 to 50 uM and measured at 3 days post-infection by crystal violet staining based assay; assay type: functional, organism-based; conditions: Severe acute respiratory syndrome coronavirus 2, USA_WA1/2020, Vero C1008, 72 h
SARS-CoV-2 [2] = experiment: Antiviral activity against SARS Cov-2 USA_WA1/2020 infected in Vero E6 cells expressing ACE2 reporter assessed as inhibition of viral cytopathic effect measured after 68 hrs post infection by neutral red uptake assay; assay type: functional, organism-based; conditions: Severe acute respiratory syndrome coronavirus 2, USA_WA1/2020, Vero C1008, 68 h
[3] = Protein binding in human plasma assessed as unbound fraction; assay type: ADME, cell-free
CYP2D6 = CYP2D6 (Homo sapiens, UniProt P10635); experiment: Inhibition of CYP2D6 (unknown origin) at 10 uM relative to control; assay type: ADME
CYP2D6, sequence (P10635 whole entry): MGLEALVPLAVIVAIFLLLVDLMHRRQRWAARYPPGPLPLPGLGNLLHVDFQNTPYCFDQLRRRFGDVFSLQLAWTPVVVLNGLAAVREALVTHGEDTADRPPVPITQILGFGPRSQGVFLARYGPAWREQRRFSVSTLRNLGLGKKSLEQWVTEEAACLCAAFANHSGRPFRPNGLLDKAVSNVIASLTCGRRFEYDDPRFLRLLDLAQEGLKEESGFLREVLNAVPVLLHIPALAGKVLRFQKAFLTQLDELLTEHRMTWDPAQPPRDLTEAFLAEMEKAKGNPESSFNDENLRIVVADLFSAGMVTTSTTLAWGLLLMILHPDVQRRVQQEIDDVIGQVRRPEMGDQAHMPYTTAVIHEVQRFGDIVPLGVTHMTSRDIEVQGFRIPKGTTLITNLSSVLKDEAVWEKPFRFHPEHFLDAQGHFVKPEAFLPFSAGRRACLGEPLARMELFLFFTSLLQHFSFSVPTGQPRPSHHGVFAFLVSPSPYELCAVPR

[4] = Apparent passive permeability in MDCK-MDR1 cells; assay type: ADME, cell-based, Canis lupus familiaris; conditions: dog
[5] = Intrinsic clearance in human liver microsomes; assay type: ADME, Microsome; conditions: read-out: CLH
[6] = Intrinsic clearance in human liver S9 fraction at 25 uM incubated for 1 hr in presence of NADPH by LC-MS/MS analysis; assay type: ADME, subcellular; conditions: read-out: CLH
CYP3A4 = CYP3A4 (Homo sapiens, UniProt P08684); experiment: Inhibition of CYP3A4 (unknown origin) at 10 uM relative to control; assay type: ADME
CYP3A4, sequence (P08684 whole entry): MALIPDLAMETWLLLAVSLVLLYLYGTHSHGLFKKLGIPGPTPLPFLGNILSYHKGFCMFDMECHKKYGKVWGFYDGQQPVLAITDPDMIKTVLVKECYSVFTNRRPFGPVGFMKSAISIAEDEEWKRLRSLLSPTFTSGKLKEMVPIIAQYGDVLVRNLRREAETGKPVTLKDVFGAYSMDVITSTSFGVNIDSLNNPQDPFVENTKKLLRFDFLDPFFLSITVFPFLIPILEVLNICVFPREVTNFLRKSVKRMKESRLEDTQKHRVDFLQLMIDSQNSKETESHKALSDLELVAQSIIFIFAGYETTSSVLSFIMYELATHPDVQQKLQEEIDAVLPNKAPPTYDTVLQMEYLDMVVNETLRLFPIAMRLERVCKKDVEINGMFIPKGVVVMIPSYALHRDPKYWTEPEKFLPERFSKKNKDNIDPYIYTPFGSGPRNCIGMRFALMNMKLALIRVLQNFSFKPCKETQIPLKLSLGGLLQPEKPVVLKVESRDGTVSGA

CYP2C9 = CYP2C9 (Homo sapiens, UniProt P11712); experiment: Inhibition of CYP2C9 (unknown origin) at 10 uM relative to control; assay type: ADME
CYP2C9, sequence (P11712 whole entry): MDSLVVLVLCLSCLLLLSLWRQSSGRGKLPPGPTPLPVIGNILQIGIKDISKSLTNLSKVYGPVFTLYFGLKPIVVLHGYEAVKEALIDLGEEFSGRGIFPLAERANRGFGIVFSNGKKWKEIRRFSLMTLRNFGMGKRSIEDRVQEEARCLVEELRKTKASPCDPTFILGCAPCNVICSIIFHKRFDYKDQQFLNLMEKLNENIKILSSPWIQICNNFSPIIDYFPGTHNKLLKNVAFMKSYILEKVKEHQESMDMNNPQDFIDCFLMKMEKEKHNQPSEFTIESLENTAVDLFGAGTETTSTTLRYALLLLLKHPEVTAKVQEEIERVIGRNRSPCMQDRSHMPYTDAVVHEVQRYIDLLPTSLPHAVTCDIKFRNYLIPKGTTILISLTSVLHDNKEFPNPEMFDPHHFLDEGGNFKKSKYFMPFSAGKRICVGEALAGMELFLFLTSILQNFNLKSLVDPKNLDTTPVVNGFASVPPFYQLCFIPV

[7] = Intrinsic clearance in rat liver microsomes; assay type: ADME, Microsome; conditions: read-out: CLH
[8] = Protein binding in rat plasma assessed as unbound fraction; assay type: ADME, cell-free
SARS-CoV-2 [9] = experiment: Cytotoxicity against SARS CoV-2 infected Vero E6 cells assessed as reduction in cell viability; assay type: toxicity; conditions: chlorocebus sabaeus, vero c1008
[10] = test system: Severe acute respiratory syndrome coronavirus 2; conditions: dose microM <=100, time 30.0 min
[11] = test system: Severe acute respiratory syndrome-related coronavirus; conditions: 1, dose microM <=100, time 30.0 min

`O=C(Cn1nnc2ccccc21)N(Cc1ccsc1)c1ccc(-c2c[nH]cn2)cc1` showed an EC50 (SARS-CoV-2 [1]) of 1.75 µM, an EC50 (SARS-CoV-2 [2]) of 1.74 µM and a fraction unbound [3] of 0.01.
In the case of `O=C(Nc1ccc(N(Cc2ccsc2)C(=O)Cn2nnc3ccccc32)cc1)C1CC1`, the EC50 (SARS-CoV-2 [1]) is reported as 28.2 µM and the EC50 (SARS-CoV-2 [2]) is reported as 19.9 µM.
Molecule `O=C(Cn1nnc2ccccc21)N(Cc1cccc(Cl)c1)c1ccc(-c2cn[nH]c2)cc1` has an EC50 (SARS-CoV-2 [1]) of 3.31 µM, an inhibition at 10 µM (CYP2D6) of 63% and a Papp [4] of 39.4 ×10⁻⁶ cm/s. It also gave a CLint scaled [5] of 2620 mL/min/kg, an EC50 (SARS-CoV-2 [2]) of 1.98 µM and a CLint scaled at 25 µM [6] of 436 mL/min/kg. It also gave an inhibition at 10 µM (CYP3A4) of 96%, an inhibition at 10 µM (CYP2C9) of 99% and a fraction unbound [3] of 0.001. It also gave a CLint scaled [7] of 5670 mL/min/kg.
In the case of `O=C(Cc1cncnc1)N(Cc1cccc(Cl)c1)c1ccc(-c2cn[nH]c2)cc1`, the inhibition at 10 µM (CYP2D6) is reported as 26%, the Papp [4] is reported as 66.7 ×10⁻⁶ cm/s and the CLint scaled [5] is reported as 620 mL/min/kg. The CLint scaled at 25 µM [6] was 145 mL/min/kg, the inhibition at 10 µM (CYP3A4) was 88% and the inhibition at 10 µM (CYP2C9) was 92%. For the same molecule, the fraction unbound [3] was 0.018, the CLint scaled [7] was 3300 mL/min/kg and the fraction unbound [8] was 0.11.
Work on `O=C(Cn1nnc2ccccc21)N(Cc1cccc(Cl)c1)c1ccc(-c2c[nH]cn2)cc1` yielded an inhibition at 10 µM (CYP2D6) of 87%, a Papp [4] of 46.1 ×10⁻⁶ cm/s and a CLint scaled [5] of 141 mL/min/kg. It also gave an inhibition at 10 µM (CYP3A4) of 100%, an inhibition at 10 µM (CYP2C9) of 100% and a fraction unbound [3] of 0.007. The CC50 (SARS-CoV-2 [9]) was greater than 50 µM, the CLint scaled [7] was 589 mL/min/kg and the fraction unbound [8] was 0.018.
`O=C(Cn1nnc2ccccc21)N(Cc1cccc(Cl)c1)c1ccc(-c2cn[nH]c2)nc1` showed an EC50 (SARS-CoV-2 [1]) of 4.65 µM and an EC50 (SARS-CoV-2 [2]) of 3.81 µM.
For `O=C(Cn1nnc2ccccc21)N(Cc1ccsc1)c1ccc(-c2cccnc2)cc1`, the EC50 (SARS-CoV-2 [1]) was 14.6 µM, the inhibition [10] was “Active” and the inhibition [11] was “Active”. For the same molecule, the EC50 (SARS-CoV-2 [2]) was 12.1 µM.
For `COc1cc(-c2cn[nH]c2)ccc1N(Cc1cccc(Cl)c1)C(=O)Cn1nnc2ccccc21`, the EC50 (SARS-CoV-2 [1]) was 2.01 µM and the EC50 (SARS-CoV-2 [2]) was 2.3 µM.
In the case of `COc1cc(N(Cc2cccc(Cl)c2)C(=O)Cn2nnc3ccccc32)ccc1-c1cn[nH]c1`, the EC50 (SARS-CoV-2 [1]) is reported as 3.24 µM and the EC50 (SARS-CoV-2 [2]) is reported as 2.93 µM.
For `O=C(Cn1nnc2ccccc21)N(Cc1cccc(Cl)c1)c1ccc(-c2cccnc2)cc1`, the EC50 (SARS-CoV-2 [1]) was 11.1 µM and the EC50 (SARS-CoV-2 [2]) was 7.61 µM.
Work on `O=C(Cn1nnc2ccccc21)N(Cc1cccc(Cl)c1)c1ccc(-c2ccc[nH]c2=O)cc1` yielded an EC50 (SARS-CoV-2 [1]) of 16.7 µM and an EC50 (SARS-CoV-2 [2]) of 8.77 µM.
For `O=C(Cn1nnc2ccccc21)N(Cc1ccsc1)c1ccc(-c2ccccc2)cc1`, the inhibition [10] was “inactive” and the inhibition [11] was “inactive”.
For `O=C(Cc1cccnc1)N(Cc1cccc(Cl)c1)c1ccc(-c2cn[nH]c2)cc1`, the inhibition at 10 µM (CYP2D6) was 55%, the Papp [4] was 61.8 ×10⁻⁶ cm/s and the CLint scaled [5] was 981 mL/min/kg. For the same molecule, the CLint scaled at 25 µM [6] was 256 mL/min/kg, the inhibition at 10 µM (CYP3A4) was 99% and the inhibition at 10 µM (CYP2C9) was 99%. The fraction unbound [3] was 0.004, the CLint scaled [7] was 3560 mL/min/kg and the fraction unbound [8] was 0.035.
For `CCC(CC)COC(=O)[C@H](C)NP(=O)(OC[C@H]1O[C@@](C#N)(c2ccc3c(N)ncnn23)[C@H](O)[C@@H]1O)Oc1ccccc1` (single isomer, unassigned), the EC50 (SARS-CoV-2 [1]) was 0.43 µM and the EC50 (SARS-CoV-2 [2]) was 0.34 µM.
With `O=C(Cn1nnc2ccccc21)N(Cc1cccc(Cl)c1)c1ccc(-c2cn[nH]c2)cn1` the EC50 (SARS-CoV-2 [1]) was 3.39 µM and the EC50 (SARS-CoV-2 [2]) was 1.91 µM.

From ChEMBL document CHEMBL5042481, “Structure-Based Optimization of ML300-Derived, Noncovalent Inhibitors Targeting the Severe Acute Respiratory Syndrome Coronavirus 3CL Protease (SARS-CoV-2 3CLpro)” (J Med Chem, 2022)
